Data published in patent publication US20190038703A1, “METHODS OF TREATING ACUTE MYELOID LEUKEMIA WITH A FLT3 MUTATION” (Biokine Therapeutics Ltd., priority 2013, published 2019).
Where a SMILES comes first, the peptide text is derived from it. Bridges are numbered along the chain shown (N, C = ends). [ ]: non-standard residue; d: D form. The star is where a group is joined. 2Nal = N[C@@H](Cc1ccc2ccccc2c1)C(=O)O; Benzoyl(4-F) = O=C(c1ccc(F)cc1)*; Cit = NC(=O)NCCC[C@H](N)C(=O)O

Assays:
[1] = test system: MV4-11 cells engrafted in NOD SCID gamma (NSG) mice; assay: AML model of NSG mice engrafted with MV4-11 cells; assay type: in vivo, mouse; conditions: AC220 10 mg/Kg oral, daily for 7 days; for AML cells in the BM / percentage of alive AML blasts in the blood / level of AML cells in the spleen: BL-8040 400 ug/mouse SC; for AML cells in the BM: control 12.6%, FIGS. 11A-11B; for percentage of alive AML blasts in the blood: control 13.5%, FIG. 9; for level of AML cells in the spleen: control 21%, FIGS. 12A-12B
Procedure: In the in-vivo study an AML model of NOD SCID gamma (NSG) mice engrafted with MV4-11 cells was used. […] The survival and apoptosis of AML cells were examined in the blood, BM and spleen of engrafted mice.
Female mice at the age of 7-9 weeks day (−1) 26/1/14: mice were irradiated with 200 rad 24 hr before cells injection day 0-27/1/14: mice were IV injected with 10×10^6 of MV4-11 cells in total volume of 200 ul PBS.

[2] = test system: human primary AML cells with FLT3-ITD; assay: Survival assay (PI staining, FACS), human primary AML cells with FLT3-ITD; assay type: cell-based; conditions: 48 hr; for decrease of the number of viable cells: human
Excerpt: (§1) Human primary AML cells with FLT3-ITD mutation and with FLT3-WT were obtained from AML patients after getting their consent in accordance with regulations of Chaim Sheba Medical Center (Tel-Aviv, Israel). Peripheral blood mononuclear cells (PBMCs) were separated from blood samples by density-gradient centrifugation on Ficoll-Paque (Pharmacia Biotech, Uppsala, Sweden). The cells were suspended in […] (FCS; Biological Industries, Kibbutz Beit Haemek, Israel), supplement with 10% DMSO then stored in liquid nitrogen. Prior to commencing a toxicity assay the isolated cells were thawed, re-suspended in Roswell Park Memorial Institute medium (RPMI 1640; Gibco BRL life technologies) supplemented with 20% FCS and incubated for 4 hr at 37° C. Isolated cells with FLT3-ITD mutation or with FLT3 wild type (FLT3-WT) were identified by using a procedure essentially as described by Levis and Small (Leukemia 17: 1738-1752, 2003). […] Following incubation the cells were stained with propidium iodide (PI; Sigma, St. Louis, Mo.; 1:1000) and the incidence of dead cells (% PI-positive) and the density of viable cells (PI-negative) were determined by FACScalibur using the procedure described by Beider and Begin (Exp Hematol 39: 282-92, 2011).

[3] = test system: human primary AML cells with wild-type FLT3; assay: Survival assay (PI staining, FACS), human primary AML cells with FLT3-WT; assay type: cell-based; conditions: 48 hr; for decrease of the number of viable cells: human
Excerpt: as §1

[4] = test system: human AML MV4-11 cells (FLT3-ITD); assay: Example 2 in-vitro viability and apoptosis by FACS; assay type: cell-based; conditions: BL-8040 20 μM, 48 hrs
Procedure: Methods: The human AML MV4-11 cells (FLT3-ITD) was used. Cells were in-vitro incubated for 48 hrs in the presence of BL-8040 (20 μM), AC220 (50 nM) or their combination. The level of viable cells, percentage of apoptosis was evaluated by FACS.

human AML xenografts = conditions: subcutaneous injections; Beider et al., Exp. Hematol. 2011; cited from earlier work
[5] = test system: malignant cells of hematopoietic origin including AML; conditions: cited from earlier work

What does the source list for CC(C)(C)c1cc(NC(=O)Nc2ccc(-c3cn4c(n3)sc3cc(OCCN5CCOCC5)ccc34)cc2)no1 [AC220, Quizartinib]?
reduction of total mouse WBC compared to the control ([1]; FIG. 10): 65%; AML cells in the BM [1]: 0.05%; percentage of alive AML blasts in the blood [1]: 0.1%; level of AML cells in the spleen [1]: 0.09%

Which “increase of the percentage of dead cells” value ([2]; BL-8040 8 μM, FIG. 1A) does the source give for N=C(N)NCCC[C@H](NC(=O)[C@@H]1CSSC[C@H](NC(=O)[C@H](Cc2ccc3ccccc3c2)NC(=O)[C@H](CCCNC(=N)N)NC(=O)[C@H](CCCNC(=N)N)NC(=O)c2ccc(F)cc2)C(=O)N[C@@H](Cc2ccc(O)cc2)C(=O)N[C@@H](CCCNC(N)=O)C(=O)N[C@@H](CCCCN)C(=O)N[C@H](CCCCN)C(=O)N2CCC[C@H]2C(=O)N[C@@H](Cc2ccc(O)cc2)C(=O)N[C@@H](CCCNC(=N)N)C(=O)N[C@@H](CCCNC(N)=O)C(=O)N1)C(N)=O [BL-8040, 4F-benzoyl-Arg-Arg-Nal-Cys-Tyr-Cit-Lys-DLys-Pro-Tyr-Arg-Cit-Cys-Arg-NH2] ({Benzoyl(4-F)}-RR[2Nal]CY[Cit]K[dK]PYR[Cit]CR-NH2; disulfide 4-13) here?
Its value is 79.3%.

And the “increase of the percentage of dead cells” value ([2]; BL-8040 20 μM, FIG. 7A)?
The value was 116.6%.

And the “decrease of the number of viable cells” value ([2]; 8 μM)?
The value was 28.8%.

What about the “decrease of the number of viable cells” value ([2]; 20 μM) of the same compound?
The value was 50.0%.

And the “increase of the percentage of dead cells” value ([3]; BL-8040 8 μM, FIG. 2A)?
The value was 13.7%.

And the “increase of the percentage of dead cells” value ([3]; BL-8040 20 μM, FIG. 8A)?
Its value is 56.3%.

And the “decrease of the number of viable cells” value ([3]; 8 μM)?
The value was 16.1%.

What about the “decrease of the number of viable cells” value ([3]; 20 μM) of the same compound?
The value was 34.4%.

And the “inhibition of cell growth” value [4]?
Its value is 35%.

And the cell death ([4]; AC220 50 nM or their combination)?
The cell death was 40%.

And the “AML cells in the BM” value [1]?
The value was 2.6%.

And the “percentage of alive AML blasts in the blood” value [1]?
Its value is 1.7%.

And the “level of AML cells in the spleen” value [1]?
Its value is 0.4%.

What about the “growth of human AML xenografts” value (human AML xenografts) of the same compound?
Its value is “significantly reduced the growth”.

And the “cytotoxicity toward malignant cells of hematopoietic origin” value [5]?
Its value is “CXCR4-dependent preferential cytotoxicity”.
